# Laboratory results reported in patent publication US12251363B2, “Compositions to enhance a non-surgical medical treatment” (Anti-Plasmin Technologies, LLC, priority 2017, dated 2025).
# Key:
# [1] = oral administration; cited from earlier work
# [2] = HPLC study to detect any binding interaction of tranexamic acid with hyaluronic acid polymer (ERACLEA product); format: physicochemical
# Experimental: First a skin care product from ERACLEA® Skin Care containing 1% (w/v) hyaluronic acid polymer and preservatives was tested. […] The analysis was carried out with fresh sample preparations being mixed and immediately injected into the HPLC system for analysis as well as sample preparations that were mixed and allowed to stand for a 20 minute time period prior to injection.
# (§1) Similar to the above-mentioned study, the JUVEDERM® analysis was carried out with fresh sample preparations being immediately injected for analysis as well as sample preparations that were allowed to stand for a 20 minute time period prior to injection.
# The sample preparation was prepared as follows: 10 mg of hyaluronic acid polymer (Source: ERACLEA®, pure hydration) was weighed in 2.5 mL of auto sampler vial and diluted to 1000 μt volume by adding an aqueous solution of 60:40 ratio, by volume, distilled water/acetonitrile and used as a standard stock solution.
# The HPLC was conducted with a flow rate of 1 mL/min, a sample concentration of 10 mg/mL, and an injection volume of 10 μt, a wave length of 205 nm and a solvent system of 40:60 ratio, by volume, acetonitrile/distilled water.
# [3] = test system: patients receiving hyaluronic acid dermal filler; test: Non-surgical clinical use: tranexamic acid solution before and after injection of hyaluronic acid dermal filler, 318 patients; format: in vivo, human; conditions: 3% (w/v) tranexamic acid solution before and after filler injection
# Source text: Three patients of the 318 reported instances of bruising or swelling.
# [4] = test system: patients undergoing dermal filler procedures; test: Bruising study: tranexamic acid solutions applied before and after dermal filler procedures, 48-hour observation; format: in vivo, human
# [5] = HPLC study of interaction of tranexamic acid with hyaluronic acid dermal filler (JUVEDERM); format: physicochemical; conditions: freshly prepared 3% (w/v) tranexamic acid in filler; injected immediately vs after standing 20 min
# Experimental: as §1
# The sample preparation was prepared as follows: 13 mg of filler (Source: JUVEDERM® Vollere XC) was weighed in a 2.5 mL vial and diluted to 1000 μt volume by adding an aqueous solution of 60:40 ratio, by volume, distilled water/acetonitrile.
# [6] = 20% (w/v) tranexamic acid solution vs without
# [7] = 20% (w/v) tranexamic acid solution, when bruising occurred
smiles,measurement,setting,value
NC[C@H]1CC[C@H](C(=O)O)CC1 [tranexamic acid],fraction of the TA ingested that does not enter the blood,[1],about half
same,interaction between tranexamic acid and hyaluronic acid polymer when mixed in solution,"[2]; 3% (w/v) tranexamic acid in solution containing 1% (w/v) hyaluronic acid polymer, mixed several weeks prior to HPLC",no interaction
same,interaction between tranexamic acid and hyaluronic acid polymer,"[2]; freshly prepared 3% (w/v) tranexamic acid in hyaluronic acid polymer, injected immediately vs after standing 20 min",no interaction
same,interaction between tranexamic acid and the hyaluronic acid in the ERACLEA product,[2]; left in contact for several weeks (0.5% and 3% (w/v) tranexamic acid),no interaction
same,patients reported instances of bruising or swelling (count),[3],Three
same,patients reported instances of bruising and swelling,"[3]; 318 patients, about 1 year",Less than 1%
same,"mild to no bruising combined, patients",[4]; 20% (w/v) tranexamic acid solution,82%
same,more patients experienced no bruising vs filler labeling,[4]; 20% (w/v) tranexamic acid solution vs labeling of JUVEDERM VOLLURE XC and VOLBELLA XC,about 28%
same,improvement in bruising incidence,"[4]; 20% (w/v) tranexamic acid solution vs other series, 48-hour observation",three-fold
same,improvement in mild bruising,[4]; [6],80%
same,improvement in mild to no bruising combined,[4]; [6],58%
same,improvement in severe bruising,[4]; [6],100%
same,patients experienced no bruising,"[4]; 20% (w/v) tranexamic acid solution, 48-hour observation",Approximately 45%
same,patients bruised severely,[4]; [7],no patients
same,patients only bruised mildly,[4]; [7],67%
same,patients experienced no bruising,"[4]; other series of patients (3%, 5%, 10% (w/v), and 3% plus home use for two days), 48-hour observation",about 15%
same,interaction between tranexamic acid and JUVEDERM filler,[5],no interaction
